Data reported in ChEMBL document CHEMBL2177079, “Free-Wilson and structural approaches to co-optimizing human and rodent isoform potency for 11β-hydroxysteroid dehydrogenase type 1 (11β-HSD1) inhibitors” (J Med Chem, 2012).

How the values were obtained:
[1] = Lipophilicity, log D at pH 7.4; type: physicochemical; settings: buffer
[2] = Oral bioavailability in Han Wistar rat at 7.4 to 14.7 umol/kg; type: ADME, organism-based; settings: Han Wistar, in vivo
[3] = molecular target: 11-beta-hydroxysteroid dehydrogenase 1 (Mus musculus, UniProt P50172); experiment: Inhibition of mouse 11beta-HSD1 by HTRF assay
[4] = molecular target: 11-beta-hydroxysteroid dehydrogenase 1 (Homo sapiens, UniProt P28845); experiment: Inhibition of human 11beta-HSD1 by HTRF assay
Chain of 11-beta-hydroxysteroid dehydrogenase 1 (Homo sapiens, UniProt P28845) (P28845 whole entry): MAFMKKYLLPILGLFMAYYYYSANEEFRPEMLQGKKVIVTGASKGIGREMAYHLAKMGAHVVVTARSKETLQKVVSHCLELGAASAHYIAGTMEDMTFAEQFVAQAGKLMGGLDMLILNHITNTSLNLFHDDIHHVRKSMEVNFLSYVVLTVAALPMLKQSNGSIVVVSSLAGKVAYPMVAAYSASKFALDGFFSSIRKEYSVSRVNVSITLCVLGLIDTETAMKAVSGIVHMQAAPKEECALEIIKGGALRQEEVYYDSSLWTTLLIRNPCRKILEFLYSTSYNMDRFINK

Chain of 11-beta-hydroxysteroid dehydrogenase 1 (Mus musculus, UniProt P50172) (P50172 whole entry): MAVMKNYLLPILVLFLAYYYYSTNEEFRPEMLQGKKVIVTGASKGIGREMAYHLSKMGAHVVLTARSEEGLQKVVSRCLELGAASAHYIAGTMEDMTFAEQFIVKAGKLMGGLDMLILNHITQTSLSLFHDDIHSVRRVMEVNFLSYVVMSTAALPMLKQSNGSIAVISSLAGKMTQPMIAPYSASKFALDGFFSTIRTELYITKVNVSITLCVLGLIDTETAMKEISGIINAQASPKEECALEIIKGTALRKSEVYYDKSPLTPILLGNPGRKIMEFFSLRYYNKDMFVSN

logD [1]	bioavailability [2]	IC50 [3]	IC50 [4]	Compound
1.8	18%	50 nM	–	CC(=O)N1CC[C@@H](Nc2ncc(C(=O)N[C@H]3C4CC5CC3C[C@](O)(C5)C4)c(C3CCCC3)n2)C1
2.5	–	32 nM	–	CC(C)(CO)Nc1ncc(C(=O)N[C@H]2C3CC4CC2C[C@](O)(C4)C3)c(C2CCCC2)n1
1.6	–	–	–	O=C(N[C@H]1C2CC3CC1C[C@](O)(C3)C2)c1cnc(N[C@@H]2CCOC2)nc1C1CC1
1.1	–	38 nM	–	O=C(N[C@H]1C2CC3CC1C[C@](O)(C3)C2)c1cnc(NC2COC2)nc1C1CC1
1.8	82%	42 nM	–	O=C(N[C@H]1C2CC3CC1C[C@](O)(C3)C2)c1cnc(N[C@H]2CCOC2)nc1C1CCC1
2.5	51%	31 nM	–	O=C(N[C@H]1C2CC3CC1C[C@](O)(C3)C2)c1cnc(NCCO)nc1OC1CCC1
1.8	86%	–	–	CC(C)(O)CNc1ncc(C(=O)N[C@H]2C3CC4CC2C[C@](O)(C4)C3)c(C2CCC2)n1
1.9	46%	84 nM	–	CC(=O)N1CCC(Nc2ncc(C(=O)N[C@H]3C4CC5CC3C[C@](O)(C5)C4)c(C3CCCC3)n2)CC1
1.6	–	133 nM	–	O=C1CC[C@@H](Nc2ncc(C(=O)N[C@H]3C4CC5CC3C[C@](O)(C5)C4)c(C3CCCC3)n2)CN1
2.2	57%	53 nM	–	CC(C)Oc1nc(NC2COC2)ncc1C(=O)N[C@H]1C2CC3CC1C[C@](O)(C3)C2
2	68%	67 nM	–	C[C@@H](O)CNc1ncc(C(=O)N[C@H]2C3CC4CC2C[C@](O)(C4)C3)c(C2CCCC2)n1
1.4	–	163 nM	–	CN(C)C(=O)CNc1ncc(C(=O)N[C@H]2C3CC4CC2C[C@](O)(C4)C3)c(C2CCCC2)n1
2.1	–	66 nM	–	O=C(N[C@H]1C2CC3CC1C[C@](O)(C3)C2)c1cnc(NC2COC2)nc1C1CCCC1
2.1	–	31 nM	–	O=C(N[C@H]1C2CC3CC1C[C@](O)(C3)C2)c1cnc(NC2CCS(=O)(=O)CC2)nc1OC1CCC1
1.5	–	31 nM	–	CC(C)(O)CNc1ncc(C(=O)N[C@H]2C3CC4CC2C[C@](O)(C4)C3)c(C2CC2)n1
1.6	–	64 nM	–	O=C(N[C@H]1C2CC3CC1C[C@](O)(C3)C2)c1cnc(NC2CCS(=O)(=O)CC2)nc1C1CCCC1
2.9	99%	16 nM	–	O=C(N[C@H]1C2CC3CC1C[C@](O)(C3)C2)c1cnc(N[C@@H]2CCOC2)nc1OC1CCC1
2.8	–	42 nM	–	O=C(N[C@H]1C2CC3CC1C[C@](O)(C3)C2)c1cnc(NC[C@H]2CCCO2)nc1C1CCCC1
2	–	42 nM	–	C[C@H](O)CNc1ncc(C(=O)N[C@H]2C3CC4CC2C[C@](O)(C4)C3)c(C2CCCC2)n1
2.6	–	38 nM	–	O=C(N[C@H]1C2CC3CC1C[C@](O)(C3)C2)c1cnc(NC2CCOCC2)nc1C1CCCC1

logD [1]	bioavailability [2]	IC50 [3]	IC50 [4]	Compound
2.4	–	73 nM	–	COCCNc1ncc(C(=O)N[C@H]2C3CC4CC2C[C@](O)(C4)C3)c(C2CCCC2)n1
2.6	19%	33 nM	–	O=C(N[C@H]1C2CC3CC1C[C@](O)(C3)C2)c1cnc(NC2COC2)nc1OC1CCC1
0.9	–	55 nM	–	O=C(N[C@H]1C2CC3CC1C[C@](O)(C3)C2)c1cnc(N[C@H]2CCNC2=O)nc1C1CCCC1
1.8	–	20 nM	–	CC(C)(CO)Nc1ncc(C(=O)N[C@H]2C3CC4CC2C[C@](O)(C4)C3)c(C2CC2)n1
1.8	53%	22 nM	–	O=C(N[C@H]1C2CC3CC1C[C@](O)(C3)C2)c1cnc(NC2CCOCC2)nc1C1CC1
1.1	–	–	–	O=C(N[C@H]1C2CC3CC1C[C@](O)(C3)C2)c1cnc(NC2CCS(=O)(=O)CC2)nc1C1CCC1
2.7	62%	–	–	CC(C)Oc1nc(N[C@@H]2CCOC2)ncc1C(=O)N[C@H]1C2CC3CC1C[C@](O)(C3)C2
1.3	–	–	–	O=C(N[C@H]1C2CC3CC1C[C@](O)(C3)C2)c1cnc(NCCO)nc1C1CCC1
1.4	9%	85 nM	–	O=C1C[C@H](CNc2ncc(C(=O)N[C@H]3C4CC5CC3C[C@](O)(C5)C4)c(C3CCCC3)n2)CN1
2.4	63%	25 nM	21 nM	O=C(N[C@H]1C2CC3CC1C[C@](O)(C3)C2)c1cnc(N[C@@H]2CCOC2)nc1C1CCCC1
2.5	83%	–	–	CC(C)Oc1nc(N[C@H]2CCOC2)ncc1C(=O)N[C@H]1C2CC3CC1C[C@](O)(C3)C2
3.2	83%	19 nM	–	O=C(N[C@H]1C2CC3CC1C[C@](O)(C3)C2)c1cnc(NC2CCOCC2)nc1OC1CCC1
2	99%	37 nM	–	O=C(N[C@H]1C2CC3CC1C[C@](O)(C3)C2)c1cnc(N[C@@H]2CCOC2)nc1C1CCC1
1.8	–	179 nM	–	O=C(N[C@H]1C2CC3CC1C[C@](O)(C3)C2)c1cnc(NCCO)nc1C1CCCC1
2.7	–	25 nM	–	O=C(N[C@H]1C2CC3CC1C[C@](O)(C3)C2)c1cnc(NC[C@@H]2CCCO2)nc1C1CCCC1 (single isomer, unassigned)
2.8	99%	22 nM	–	O=C(N[C@H]1C2CC3CC1C[C@](O)(C3)C2)c1cnc(N[C@H]2CCOC2)nc1OC1CCC1
2.3	33%	48 nM	–	CC(C)(O)CNc1ncc(C(=O)N[C@H]2C3CC4CC2C[C@](O)(C4)C3)c(C2CCCC2)n1
2.7	17%	36 nM	–	O=C(N[C@H]1C2CC3CC1C[C@](O)(C3)C2)c1cnc(N[C@H]2CCC[C@H]2O)nc1C1CCCC1
1.7	73%	–	–	O=C(N[C@H]1C2CC3CC1C[C@](O)(C3)C2)c1cnc(N[C@H]2CCOC2)nc1C1CC1
